Assay results published in ChEMBL document CHEMBL1201862, “PubChem BioAssay data set” (2004).
Calls of active or inactive are those of the source.

Assays:
[1] = molecular target: T1, Intestinal-type alkaline phosphatase (Homo sapiens, UniProt P09923); assay: Dose Response confirmation of uHTS hits from a small molecule inhibitors of human intestinal alkaline phosphatase via a luminescent assay. [Related pubchem assays (depositor defined):AID2544, AID2574]; type: functional
[2] = molecular target: T2, Oxysterols receptor LXR-beta (Homo sapiens, UniProt P55055); type: functional, cell-based;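 note: Cell-based luminescence dose-response assay of agonist activity at LXR, run as a confirmatory counterscreen to a daf-12 agonist screen; HEK293 cells with Gal4-LXR fusion and GAL4-driven luciferase reporter; agonist potency from rising luciferase signal of a Gal4-LXR reporter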
T2 sequence (P55055 whole entry): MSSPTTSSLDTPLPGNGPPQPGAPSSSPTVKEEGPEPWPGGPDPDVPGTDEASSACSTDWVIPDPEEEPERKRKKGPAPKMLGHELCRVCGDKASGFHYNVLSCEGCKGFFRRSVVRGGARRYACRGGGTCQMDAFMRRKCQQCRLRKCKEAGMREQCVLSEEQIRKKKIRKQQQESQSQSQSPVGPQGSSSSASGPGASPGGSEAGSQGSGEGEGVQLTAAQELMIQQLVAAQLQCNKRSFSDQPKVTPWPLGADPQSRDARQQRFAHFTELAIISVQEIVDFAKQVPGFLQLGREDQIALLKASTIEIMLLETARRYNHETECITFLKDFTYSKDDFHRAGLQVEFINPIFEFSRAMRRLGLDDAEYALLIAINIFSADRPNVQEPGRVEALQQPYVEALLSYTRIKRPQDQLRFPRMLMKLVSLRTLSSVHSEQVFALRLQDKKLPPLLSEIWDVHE

[3] = molecular target: T1, Intestinal-type alkaline phosphatase; assay: human intestinal alkaline phosphatase activators, dose response, biochemical, luminescence, uHTS hits (AID 463120); type: functional
[4] = molecular target: Peroxisome proliferator-activated receptor gamma/Nuclear receptor coactivator 1 (Homo sapiens, UniProt P37231); assay: (§1) TR-FRET dose response biochemical High Throughput Screening assay for agonists of the steroid receptor coactivator 1 (SRC-1) recruitment by the peroxisome proliferator-activated receptor gamma (PPAR gamma): non-selective agonists. [Related pubchem assays (depositor defined):AID1300, AID1808, AID504735, AID631]; type: protein assay
[5] = molecular target: Peroxisome proliferator-activated receptor gamma/Nuclear receptor coactivator 3 (Homo sapiens, UniProt P37231); assay: as §1, with “3 (SRC-3)” for “1 (SRC-1)”, “assays: 1301 (Confirmation screen.), 1048 (Primary screen.)]” for “assays (depositor defined):AID1300, AID1808, AID504735, AID631]”; type: functional
[6] = molecular target: Peroxisome proliferator-activated receptor gamma/Nuclear receptor coactivator 2 (Homo sapiens, UniProt P37231); assay: TR-FRET dose response biochemical High Throughput Screening assay for agonists of the steroid receptor coactivator 2 (SRC-2) recruitment by the peroxisome proliferator-activated receptor gamma (PPAR gamma): non-selective agonists. [Related pubchem assays: 1297, 1032 ]; type: functional
[7] = molecular target: Lysine-specific demethylase 4C (Homo sapiens, UniProt Q9H3R0); assay: GASC-1 (JMJD2C) histone demethylase inhibitors, dose response, biochemical, DELFIA europium, cherry-picked samples (AID 488835); type: functional
[8] = HEp-2 cell cytotoxicity, dose response, cytotoxicity control for RSV inhibitor project, HTS (AID 2410); type: functional; details: human respiratory syncytial virus
Streptokinase A = molecular target: T3, Streptokinase A (Streptococcus pyogenes serotype M1, UniProt P10520); assay: S. pyogenes streptokinase expression inhibitors, potency, dose response, plasminogen activation absorbance, OD405 (AID 1914); type: functional, Streptococcus pyogenes M1 GAS;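 note: secreted streptokinase activity via plasminogen activation per viability signal from cell pellet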
T3 sequence (P10520 whole entry): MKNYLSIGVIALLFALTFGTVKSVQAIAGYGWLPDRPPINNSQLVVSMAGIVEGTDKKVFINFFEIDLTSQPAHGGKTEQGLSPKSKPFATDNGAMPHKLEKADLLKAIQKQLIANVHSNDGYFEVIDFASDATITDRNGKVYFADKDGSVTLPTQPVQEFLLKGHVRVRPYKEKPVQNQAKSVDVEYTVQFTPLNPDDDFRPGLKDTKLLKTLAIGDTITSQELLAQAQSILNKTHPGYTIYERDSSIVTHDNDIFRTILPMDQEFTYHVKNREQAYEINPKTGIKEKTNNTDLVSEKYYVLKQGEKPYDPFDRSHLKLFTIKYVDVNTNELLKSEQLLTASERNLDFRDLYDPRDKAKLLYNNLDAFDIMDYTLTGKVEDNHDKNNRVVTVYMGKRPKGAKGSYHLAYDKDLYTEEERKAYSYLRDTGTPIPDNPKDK

Keap1/Nrf2 = Keap1/Nrf2 (Homo sapiens, UniProt Q14145); assay: Keap1-Nrf2 protein-protein interaction inhibitors, dose response, biochemical, fluorescence polarization, cherry-picked samples (AID 588683)
Chain of Keap1/Nrf2 (Q16236 whole entry): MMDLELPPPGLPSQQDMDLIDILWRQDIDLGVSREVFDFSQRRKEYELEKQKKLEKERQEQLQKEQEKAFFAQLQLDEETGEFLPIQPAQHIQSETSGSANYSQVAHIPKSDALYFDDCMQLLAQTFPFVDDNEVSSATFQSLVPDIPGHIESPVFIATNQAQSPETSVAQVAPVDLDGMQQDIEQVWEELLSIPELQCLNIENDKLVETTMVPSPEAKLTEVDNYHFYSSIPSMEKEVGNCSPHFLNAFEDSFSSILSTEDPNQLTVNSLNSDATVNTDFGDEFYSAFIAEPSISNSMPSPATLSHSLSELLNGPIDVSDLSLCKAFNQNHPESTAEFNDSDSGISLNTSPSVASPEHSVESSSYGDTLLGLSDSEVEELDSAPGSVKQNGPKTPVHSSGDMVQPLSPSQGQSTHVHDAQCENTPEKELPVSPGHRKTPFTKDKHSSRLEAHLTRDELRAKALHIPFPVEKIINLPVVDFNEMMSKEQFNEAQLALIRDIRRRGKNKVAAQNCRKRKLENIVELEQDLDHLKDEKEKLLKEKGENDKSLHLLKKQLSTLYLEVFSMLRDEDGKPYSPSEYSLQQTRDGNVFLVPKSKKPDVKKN
Chain of Keap1/Nrf2 (Q14145 whole entry): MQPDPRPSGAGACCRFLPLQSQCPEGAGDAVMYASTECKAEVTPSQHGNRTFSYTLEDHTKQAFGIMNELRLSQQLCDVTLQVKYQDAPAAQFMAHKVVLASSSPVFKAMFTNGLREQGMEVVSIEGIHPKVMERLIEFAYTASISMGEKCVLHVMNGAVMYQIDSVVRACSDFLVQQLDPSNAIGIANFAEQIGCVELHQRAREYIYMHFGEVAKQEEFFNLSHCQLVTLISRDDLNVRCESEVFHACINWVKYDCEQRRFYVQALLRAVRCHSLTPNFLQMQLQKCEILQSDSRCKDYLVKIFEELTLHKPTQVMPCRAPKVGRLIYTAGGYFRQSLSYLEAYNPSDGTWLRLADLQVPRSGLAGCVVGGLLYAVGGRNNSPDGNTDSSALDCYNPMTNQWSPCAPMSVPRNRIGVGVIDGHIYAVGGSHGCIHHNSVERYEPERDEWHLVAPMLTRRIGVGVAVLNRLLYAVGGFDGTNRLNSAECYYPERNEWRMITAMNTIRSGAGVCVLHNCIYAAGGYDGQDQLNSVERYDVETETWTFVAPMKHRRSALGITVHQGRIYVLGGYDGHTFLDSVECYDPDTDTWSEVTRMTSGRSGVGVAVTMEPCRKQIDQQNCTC

[9] = enhancers of respiration in Yfh1-depleted yeast, dose response, Friedreich's ataxia, plus single-dose screen (AID 1465); type: functional;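 note: yeast depleted of Yfh1p frataxin homolog grown on glycerol needing respiration; WST-1 tetrazolium dye reduction as measure of cellular dehydrogenase metabolic activity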
Streptococcus = assay: Group A Streptococcus viability loss, dose response, counter-screen for streptokinase expression inhibitor project, luminescence, BacTiterGlo (AID 1915); type: functional, organism-based;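 note: potency for reduction of bacterial viability or growth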
[10] = system: Streptococcus sp. 'group A'; assay: growth inhibition of control SK(-) GAS strain, dose response, counter-screen for streptokinase expression inhibitor project, luminescence, kanamycin, BacTiterGlo, confirmation (AID 1900); type: functional, organism-based
Hexokinase-1 = molecular target: T4, Hexokinase-1 (Homo sapiens, UniProt P19367); assay: hexokinase 1 activators, dose response, selectivity assay for HKDC1 activator project, biochemical (AID 504762); type: functional
T4 sequence (P19367 whole entry): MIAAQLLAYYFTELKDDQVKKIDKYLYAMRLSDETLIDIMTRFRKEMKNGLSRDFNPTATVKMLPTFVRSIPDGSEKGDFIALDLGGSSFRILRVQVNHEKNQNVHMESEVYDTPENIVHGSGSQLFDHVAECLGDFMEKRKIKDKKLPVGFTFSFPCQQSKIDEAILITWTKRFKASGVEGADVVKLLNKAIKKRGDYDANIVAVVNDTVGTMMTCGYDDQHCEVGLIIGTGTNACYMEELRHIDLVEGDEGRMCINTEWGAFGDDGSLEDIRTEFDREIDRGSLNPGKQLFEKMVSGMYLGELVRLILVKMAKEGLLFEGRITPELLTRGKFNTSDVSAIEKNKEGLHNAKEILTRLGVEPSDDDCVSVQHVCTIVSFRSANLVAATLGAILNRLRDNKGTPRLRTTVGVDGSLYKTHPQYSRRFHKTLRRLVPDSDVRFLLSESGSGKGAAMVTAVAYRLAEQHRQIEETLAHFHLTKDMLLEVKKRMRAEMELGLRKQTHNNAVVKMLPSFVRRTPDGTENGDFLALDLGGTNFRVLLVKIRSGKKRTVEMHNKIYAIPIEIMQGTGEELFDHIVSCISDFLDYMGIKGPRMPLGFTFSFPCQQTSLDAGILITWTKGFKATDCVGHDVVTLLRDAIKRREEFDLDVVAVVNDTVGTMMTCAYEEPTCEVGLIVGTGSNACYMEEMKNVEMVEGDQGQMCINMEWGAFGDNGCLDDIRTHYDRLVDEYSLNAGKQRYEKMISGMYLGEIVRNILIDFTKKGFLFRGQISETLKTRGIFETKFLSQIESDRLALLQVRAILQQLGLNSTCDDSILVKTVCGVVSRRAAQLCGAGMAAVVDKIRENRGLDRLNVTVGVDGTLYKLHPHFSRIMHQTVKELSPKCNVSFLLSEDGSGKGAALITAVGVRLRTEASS

Hexokinase HKDC1 = molecular target: T5, Hexokinase HKDC1 (Homo sapiens, UniProt Q2TB90); assay: HKDC1 hexokinase activators, dose response, biochemical, W721R variant (AID 504730); type: functional
T5 sequence (Q2TB90 whole entry): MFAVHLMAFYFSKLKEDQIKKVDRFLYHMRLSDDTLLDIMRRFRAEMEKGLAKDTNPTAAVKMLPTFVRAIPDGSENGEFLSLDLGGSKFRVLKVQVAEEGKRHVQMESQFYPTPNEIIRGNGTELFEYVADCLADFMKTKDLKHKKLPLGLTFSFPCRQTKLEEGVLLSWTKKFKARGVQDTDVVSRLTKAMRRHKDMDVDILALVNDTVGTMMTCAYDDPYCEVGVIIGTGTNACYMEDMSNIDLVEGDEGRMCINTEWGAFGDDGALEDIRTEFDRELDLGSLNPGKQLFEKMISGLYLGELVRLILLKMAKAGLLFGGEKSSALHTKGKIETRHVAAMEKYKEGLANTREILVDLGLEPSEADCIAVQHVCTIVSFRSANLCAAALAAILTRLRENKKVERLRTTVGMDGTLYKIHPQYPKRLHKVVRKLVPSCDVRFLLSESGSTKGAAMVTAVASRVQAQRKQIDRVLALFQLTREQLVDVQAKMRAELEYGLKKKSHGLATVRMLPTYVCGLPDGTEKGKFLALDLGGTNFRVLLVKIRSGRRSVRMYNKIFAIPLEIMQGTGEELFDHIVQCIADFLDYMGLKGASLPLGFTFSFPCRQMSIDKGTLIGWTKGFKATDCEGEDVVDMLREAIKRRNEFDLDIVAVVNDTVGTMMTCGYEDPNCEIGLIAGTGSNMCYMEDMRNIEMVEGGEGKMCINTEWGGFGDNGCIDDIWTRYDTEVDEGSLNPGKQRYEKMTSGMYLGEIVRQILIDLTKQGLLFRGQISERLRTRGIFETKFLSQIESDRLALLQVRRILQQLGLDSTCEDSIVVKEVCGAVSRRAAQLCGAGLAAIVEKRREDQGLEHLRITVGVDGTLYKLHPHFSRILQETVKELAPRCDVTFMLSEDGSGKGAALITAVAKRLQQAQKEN

INS1 = assay: beta cell apoptosis inhibitors, cytokine rescue, dose response, luminescence, retest (AID 449756); type: functional, cell-based; details: Rattus norvegicus;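 note: cell death triggered by IL-1 beta plus TNF-alpha plus IFN-gamma mixture; protective hits raise ATP signal compared with cytokine alone wells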
CAAX prenyl protease 2 = molecular target: T6, CAAX prenyl protease 2 (Saccharomyces cerevisiae S288c, UniProt Q03530); type: biochemical
T6 sequence (Q03530 whole entry): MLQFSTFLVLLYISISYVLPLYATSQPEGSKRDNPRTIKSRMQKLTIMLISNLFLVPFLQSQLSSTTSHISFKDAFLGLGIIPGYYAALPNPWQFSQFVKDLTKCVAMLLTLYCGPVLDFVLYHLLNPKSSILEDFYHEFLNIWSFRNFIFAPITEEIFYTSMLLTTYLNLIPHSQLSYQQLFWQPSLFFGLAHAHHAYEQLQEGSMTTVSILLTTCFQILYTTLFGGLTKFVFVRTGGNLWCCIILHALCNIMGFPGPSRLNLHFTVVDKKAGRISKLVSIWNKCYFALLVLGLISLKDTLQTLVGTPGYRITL

[11] = mammalian cell cytotoxicity, dose response, cytotoxicity control, plate reader, cherry-pick samples (AID 504397); type: functional, cell-based
[12] = molecular target: T7, Voltage-gated N-type calcium channel alpha-1B subunit/Amyloid beta A4 precursor protein-binding family A member 1 (Homo sapiens, UniProt Q00975+Q02410); type: protein assay
T7 sequence (Q00975 whole entry): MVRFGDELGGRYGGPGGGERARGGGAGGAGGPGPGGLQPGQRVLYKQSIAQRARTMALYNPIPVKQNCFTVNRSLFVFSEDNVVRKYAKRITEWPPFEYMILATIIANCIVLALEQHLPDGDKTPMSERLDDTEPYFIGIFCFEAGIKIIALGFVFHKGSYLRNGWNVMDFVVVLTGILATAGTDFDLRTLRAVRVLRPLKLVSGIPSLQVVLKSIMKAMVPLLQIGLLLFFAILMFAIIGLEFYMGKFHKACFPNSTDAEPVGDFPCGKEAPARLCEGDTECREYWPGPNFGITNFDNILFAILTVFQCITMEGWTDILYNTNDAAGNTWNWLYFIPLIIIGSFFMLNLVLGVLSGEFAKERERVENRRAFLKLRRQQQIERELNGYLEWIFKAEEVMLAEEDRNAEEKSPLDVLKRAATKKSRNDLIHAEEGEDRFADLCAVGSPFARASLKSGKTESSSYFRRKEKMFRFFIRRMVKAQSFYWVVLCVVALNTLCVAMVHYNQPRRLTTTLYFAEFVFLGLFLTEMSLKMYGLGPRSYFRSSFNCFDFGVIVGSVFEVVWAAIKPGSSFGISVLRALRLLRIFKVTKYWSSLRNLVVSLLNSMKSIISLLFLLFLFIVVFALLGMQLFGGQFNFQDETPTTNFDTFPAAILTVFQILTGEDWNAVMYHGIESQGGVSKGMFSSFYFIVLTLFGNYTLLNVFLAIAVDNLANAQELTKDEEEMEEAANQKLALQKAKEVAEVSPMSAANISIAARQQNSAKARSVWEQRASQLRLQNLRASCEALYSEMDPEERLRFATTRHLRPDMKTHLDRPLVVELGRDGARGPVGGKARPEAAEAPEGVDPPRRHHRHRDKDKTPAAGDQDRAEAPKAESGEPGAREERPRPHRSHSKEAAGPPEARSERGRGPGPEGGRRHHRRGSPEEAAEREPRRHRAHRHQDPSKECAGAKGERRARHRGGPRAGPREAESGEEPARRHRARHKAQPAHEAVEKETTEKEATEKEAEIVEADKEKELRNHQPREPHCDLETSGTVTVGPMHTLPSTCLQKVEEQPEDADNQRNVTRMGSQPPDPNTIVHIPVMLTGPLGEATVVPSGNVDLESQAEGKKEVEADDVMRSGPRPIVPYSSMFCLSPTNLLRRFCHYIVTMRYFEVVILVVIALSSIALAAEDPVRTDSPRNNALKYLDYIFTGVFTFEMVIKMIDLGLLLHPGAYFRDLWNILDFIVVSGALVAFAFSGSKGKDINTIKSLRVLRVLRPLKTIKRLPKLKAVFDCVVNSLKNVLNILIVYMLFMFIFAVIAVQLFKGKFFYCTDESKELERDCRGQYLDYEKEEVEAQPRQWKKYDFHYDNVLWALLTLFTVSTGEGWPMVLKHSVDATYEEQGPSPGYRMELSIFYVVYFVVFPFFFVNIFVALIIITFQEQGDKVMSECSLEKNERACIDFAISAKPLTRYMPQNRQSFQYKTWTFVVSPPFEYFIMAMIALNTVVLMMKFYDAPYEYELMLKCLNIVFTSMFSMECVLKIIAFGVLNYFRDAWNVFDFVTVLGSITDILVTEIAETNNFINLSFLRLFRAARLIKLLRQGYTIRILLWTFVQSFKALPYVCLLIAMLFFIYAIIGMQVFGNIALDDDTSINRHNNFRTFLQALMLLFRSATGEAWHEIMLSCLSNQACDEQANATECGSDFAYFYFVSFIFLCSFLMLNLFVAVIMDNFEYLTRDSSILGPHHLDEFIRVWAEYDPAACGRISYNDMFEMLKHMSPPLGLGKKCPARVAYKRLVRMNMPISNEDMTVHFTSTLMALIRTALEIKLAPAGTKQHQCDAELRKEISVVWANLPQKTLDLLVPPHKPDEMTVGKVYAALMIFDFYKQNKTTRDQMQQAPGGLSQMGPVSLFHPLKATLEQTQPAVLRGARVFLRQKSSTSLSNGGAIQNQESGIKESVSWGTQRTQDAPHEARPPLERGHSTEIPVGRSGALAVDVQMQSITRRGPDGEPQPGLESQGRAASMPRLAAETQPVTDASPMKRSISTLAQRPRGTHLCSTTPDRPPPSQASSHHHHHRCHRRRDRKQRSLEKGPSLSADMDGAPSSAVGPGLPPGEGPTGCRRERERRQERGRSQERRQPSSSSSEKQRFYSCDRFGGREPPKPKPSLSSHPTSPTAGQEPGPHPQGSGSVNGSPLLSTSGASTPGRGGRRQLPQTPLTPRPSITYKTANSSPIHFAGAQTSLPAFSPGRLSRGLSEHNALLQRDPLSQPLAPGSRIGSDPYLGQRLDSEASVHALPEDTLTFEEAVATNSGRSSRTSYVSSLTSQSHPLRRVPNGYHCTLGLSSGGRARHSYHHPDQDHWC
T7 sequence (Q02410 whole entry): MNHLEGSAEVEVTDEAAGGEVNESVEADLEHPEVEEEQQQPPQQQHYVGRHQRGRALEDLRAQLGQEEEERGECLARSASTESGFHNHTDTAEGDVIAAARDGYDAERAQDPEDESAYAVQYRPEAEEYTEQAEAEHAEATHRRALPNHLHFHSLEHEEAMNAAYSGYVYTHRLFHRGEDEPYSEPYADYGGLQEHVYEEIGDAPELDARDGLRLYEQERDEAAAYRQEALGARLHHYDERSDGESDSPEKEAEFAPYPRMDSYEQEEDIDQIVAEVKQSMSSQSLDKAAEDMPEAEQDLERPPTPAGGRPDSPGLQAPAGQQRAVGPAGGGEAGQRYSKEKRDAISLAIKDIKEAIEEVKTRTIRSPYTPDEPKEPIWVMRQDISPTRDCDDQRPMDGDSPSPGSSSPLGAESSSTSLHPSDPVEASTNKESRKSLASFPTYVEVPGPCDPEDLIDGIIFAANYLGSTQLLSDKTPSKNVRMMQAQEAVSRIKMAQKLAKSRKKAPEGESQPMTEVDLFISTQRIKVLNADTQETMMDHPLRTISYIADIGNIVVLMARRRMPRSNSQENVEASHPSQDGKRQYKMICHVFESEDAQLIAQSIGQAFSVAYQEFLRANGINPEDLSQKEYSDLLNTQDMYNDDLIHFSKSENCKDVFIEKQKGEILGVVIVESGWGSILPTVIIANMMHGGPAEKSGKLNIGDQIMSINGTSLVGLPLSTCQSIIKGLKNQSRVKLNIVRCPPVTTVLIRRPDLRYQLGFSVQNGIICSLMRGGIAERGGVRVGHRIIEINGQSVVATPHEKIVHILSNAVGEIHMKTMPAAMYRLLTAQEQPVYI

[13] = molecular target: T7, Voltage-gated N-type calcium channel alpha-1B subunit/Amyloid beta A4 precursor protein-binding family A member 1; type: protein assay; remark: listed apart in the source

T1 sequence (P09923 whole entry, the tested form may be a part): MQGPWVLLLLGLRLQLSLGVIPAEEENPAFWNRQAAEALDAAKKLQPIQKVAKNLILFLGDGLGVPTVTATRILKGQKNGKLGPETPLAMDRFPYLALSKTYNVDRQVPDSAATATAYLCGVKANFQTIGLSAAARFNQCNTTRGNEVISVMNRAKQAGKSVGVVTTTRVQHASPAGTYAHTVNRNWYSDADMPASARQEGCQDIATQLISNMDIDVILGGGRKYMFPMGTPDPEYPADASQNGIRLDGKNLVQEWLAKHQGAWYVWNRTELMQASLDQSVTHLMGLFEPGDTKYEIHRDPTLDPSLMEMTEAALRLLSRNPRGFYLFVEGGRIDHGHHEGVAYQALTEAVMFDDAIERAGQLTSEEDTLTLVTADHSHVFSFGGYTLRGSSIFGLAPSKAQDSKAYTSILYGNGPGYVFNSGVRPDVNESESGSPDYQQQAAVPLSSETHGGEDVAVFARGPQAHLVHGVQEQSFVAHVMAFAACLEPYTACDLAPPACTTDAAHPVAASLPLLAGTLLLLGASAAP

NC(=O)c1c(NC(=O)c2ccc(F)cc2)sc2c1CCC2
IC50 [1]: > 100 µM (inactive) | EC50 (cells): > 67.5 µM (inactive) | EC50 [2]: > 67.5 µM (inactive) | EC50 [3]: > 100 µM (inactive)

Sc1nc(-c2ccc(Cl)cc2)cs1
EC50 [4]: 12 µM (inactive) | EC50 [5]: > 79.4 µM (not active) | EC50 [6]: 21.8 µM (not active)

Cc1onc(-c2ccccc2Cl)c1C(=O)Nc1nnc(-c2ccc(Cl)cc2Cl)s1
EC50 [4]: 51.2 µM (inactive) | EC50 [5]: 75.5 µM (not active) | EC50 [6]: 42.8 µM (not active)

Nc1cccc(C(=O)Nc2ccco2)c1
AC50 [7]: 27.5 µM (active)

O=C1CCCc2oc3c(cc(NS(=O)(=O)c4ccc5c6c(cccc46)C(=O)N5)c4ccccc43)c21
CC50 [8]: 25.1 µM (active) | EC50 (Streptokinase A): > 150 µM (not active) | AC50 (Keap1/Nrf2): 51.2 µM (active) | EC50 [9]: > 100 µM (active) | EC50 (Streptococcus): > 150 µM (not active) | EC50 [10]: 3.82 µM (active)

Clc1cccc(NC2=NN=C(c3ccc4c(c3)OCCO4)CS2)c1
EC50 (Hexokinase-1): 41.3 µM (inactive) | EC50 (Hexokinase HKDC1): 23.2 µM (inactive) | AC50 (INS1): 2.25 µM (active)

CCN(CC)CCN(C(=O)c1ccc2ccccc2c1)c1nc2ccc(F)cc2s1
AC50 (CAAX prenyl protease 2): 6.18 µM (active) | AC50 [11]: 181 µM (active)

COc1cccc(/C=N/Nc2nn3cnnc3c3ccccc23)c1O
IC50 [12]: 20.6 µM (active) | IC50 [13]: > 50 µM (inactive) | EC50 [3]: > 100 µM (inactive)

Cc1ccc(NC(=O)/C(C#N)=C(\N)C(Cl)(Cl)Cl)nc1
AC50 (Keap1/Nrf2): 11.9 µM (active)
